Assay results published in patent US7608625B2, “Method for treating bruxism and bruxism-related diseases” (Eisai R & D Management Co., Ltd., priority 2003, dated 2009).
Where a name gives a salt, the structure may show the parent alone.

Tests used:
bruxism patient [1] = assay: Temporal muscle activity during sleep in bruxism patients, placebo or proton pump inhibitor (Experiment 2, double-blind); format: in vivo, human; conditions: 10 mg
Description: A catheter with a pH electrode was inserted into the test subject's esophagus 5 cm above the upper portion of the lower esophageal sphincter and pH was measured while the subject was asleep, while a disposable (bipolar) electrode was affixed to the skin at the front of the temporal muscle on one side. An amount of muscle activity during sleep was measured from 2.5 hours after falling asleep for a 40-minute period. At the same time, video and sound recordings were made that confirmed bruxism during sleep. […] In this Figure, when stable pH levels in the esophagus declined sharply, this was defined as an “decreased esophageal pH episode”. Measurement of temporal muscle activity during sleep in the bruxsim patient medicated with placebo or the proton pump inhibitor In a double-blind trial, test subjects were assigned to either medication with placebo or the proton pump inhibitor [sodium salt of rabeprazole (10 mg; brand name: […] (registered trademark), Eisai Co., Ltd.)] and, according to the method used in experiment 1, the amount of muscle activity during sleep in the front of the temporal muscle on one side was measured for a 4-hour period between 1 and 5 hours after falling asleep. Video and sound recordings were made at the same time that confirmed bruxism during sleep. […] A paired t test was used to test for significance, with P<0.05 defined as indicating a statistically significant difference.

bruxism patient [2] = assay: Frequency of bruxism episodes during sleep in bruxism patients, placebo, PPI, H2RA or the combination (Experiment 3, double-blind); format: in vivo, human; conditions: FIG. 3; bruxism patients n=9; 10 mg of each drug; 4-hour period between 1 and 5 hours after falling asleep; vs placebo; paired t test, P<0.05 significant
Description: A catheter with a pH electrode was inserted into the test subject's esophagus 5 cm above the upper portion of the lower esophageal sphincter and pH was measured while the subject was asleep, while a disposable (bipolar) electrode was affixed to the skin at the front of the temporal muscle on one side. An amount of muscle activity during sleep was measured from 2.5 hours after falling asleep for a 40-minute period. At the same time, video and sound recordings were made that confirmed bruxism during sleep. […] In this Figure, when stable pH levels in the esophagus declined sharply, this was defined as an “decreased esophageal pH episode”. […] According to the methods used in experiment 1, the amount of muscle activity during sleep in the front of the temporal muscle on one side was measured for a 4-hour period between 1 and 5 hours after falling asleep. […]

## COCCCOc1ccnc(C[S+]([O-])c2nc3ccccc3[nH]2)c1C (stereo not shown) [proton pump inhibitor, sodium salt of rabeprazole]
Bruxism patient [1]; FIG. 2(A), one bruxism patient, 4-hour period between 1 and 5 hours after falling asleep, compared to placebo
  frequency of jaw motion accompanying rhythmical temporal muscle activity (bruxism episode): substantial decline
Bruxism patient [1]; FIG. 2(B), bruxism patients n=8, vs placebo, paired t test, ****P<0.0001
  frequency of bruxism episodes per hour of sleep: significantly reduces
Bruxism patient [1]; FIG. 2(B), bruxism patients n=8, vs placebo, paired t test, ***P<0.001
  duration of bruxism episodes per hour of sleep: significantly reduces
Bruxism patient [2]
  frequency of bruxism episodes per hour of sleep: significant reduction
